Experimental data reported in ChEMBL document CHEMBL2057100, “The optimization of pyridazinone series of glucan synthase inhibitors” (Bioorg Med Chem Lett, 2012).
In brackets after ≈: the same amount, converted by molar mass. Activity calls are given as the source filed them. The rule behind the calls is not given here.

Legend:
Candida albicans [1] = test: Antifungal activity against Candida albicans C693 by broth dilution method; format: functional; conditions: read-out: MIC100
Beta-1,3-glucan synthase = target: T1, Beta-1,3-glucan synthase (Candida albicans, UniProt O13383); test: Inhibition of 1,3-beta-D-glucan synthase in Candida albicans BWP17 membranes; format: cell membranes
T1 sequence (O13383 whole entry): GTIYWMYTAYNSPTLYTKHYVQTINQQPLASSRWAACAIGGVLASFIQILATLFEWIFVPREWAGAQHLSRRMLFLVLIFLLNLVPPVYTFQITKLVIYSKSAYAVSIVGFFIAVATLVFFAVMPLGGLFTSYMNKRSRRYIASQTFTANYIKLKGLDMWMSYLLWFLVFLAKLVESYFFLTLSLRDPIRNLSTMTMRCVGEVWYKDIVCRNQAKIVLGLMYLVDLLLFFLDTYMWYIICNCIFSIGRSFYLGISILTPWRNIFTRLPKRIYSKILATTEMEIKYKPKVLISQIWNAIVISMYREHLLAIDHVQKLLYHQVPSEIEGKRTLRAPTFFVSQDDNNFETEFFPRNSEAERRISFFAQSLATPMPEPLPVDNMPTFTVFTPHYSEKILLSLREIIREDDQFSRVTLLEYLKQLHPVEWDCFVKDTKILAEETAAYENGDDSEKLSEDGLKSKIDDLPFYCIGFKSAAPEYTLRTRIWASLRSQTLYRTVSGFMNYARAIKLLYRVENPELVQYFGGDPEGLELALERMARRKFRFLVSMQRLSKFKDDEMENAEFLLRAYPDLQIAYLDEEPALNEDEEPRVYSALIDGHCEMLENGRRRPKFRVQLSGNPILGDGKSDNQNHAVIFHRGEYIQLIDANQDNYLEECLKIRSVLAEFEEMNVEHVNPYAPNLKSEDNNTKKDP

Rattus norvegicus = test: (§1) AUC (0 to 6 hrs) in rat at 10 mg/kg, po; format: ADME, organism-based, Plasma; design: time < 6 hr, dose 10 mg/kg, route oral; conditions: in vivo, 6 h, BLD = below limit of detection
Nakaseomyces glabratus = test: Antifungal activity against Candida glabrata C624 by broth dilution method; format: functional; conditions: read-out: MIC100
Candida albicans [2] = test: Antifungal activity against Candida albicans C697 infected in immune compromised mouse assessed as increase of host survival at 100 mg/kg, ip measured for 4 days; format: functional; conditions: 96 h, route intraperitoneal
Candida albicans [3] = test: Antifungal activity against Candida albicans C697 infected in normal mouse assessed as increase of host survival at 100 mg/kg, ip measured for 4 days; format: functional; conditions: 96 h, route intraperitoneal
Candida albicans [4] = test: Antifungal activity against Candida albicans C697 infected in normal mouse assessed as reduction of fungal burden in kidney at 100 mg/kg, ip; format: functional, organism-based; design: dose 100 mg/kg
Candida albicans [5] = test: Antifungal activity against Candida albicans C697 infected in immune compromised mouse assessed as reduction of fungal burden in kidney at 100 mg/kg, ip; format: functional, organism-based; design: dose 100 mg/kg
Aspergillus fumigatus [6] = test: Induction of morphological changes in Aspergillus fumigatus ND158 assessed as induction of truncated and highly branched hyphae; format: functional, organism-based
[7] = as §1; format: ADME, organism-based, Plasma; design: time < 6 hr, dose 10 mg/kg, route oral; conditions: plasma
Aspergillus fumigatus [8] = test: Antifungal activity against Aspergillus fumigatus ND158 by broth dilution method; format: functional; conditions: read-out: MEC
[9] = Cmax in rat at 10 mg/kg, po; format: ADME, organism-based; design: dose 10 mg/kg, route oral; conditions: in vivo
Candida albicans [10] = test: Antifungal activity against Candida albicans C697 infected in immune compromised mouse assessed as reduction of fungal burden in kidney at 5 mg/kg, ip; format: functional, organism-based; design: dose 5 mg/kg
Candida albicans [11] = test: Antifungal activity against Candida albicans C697 infected in immune compromised mouse assessed as increase of host survival at 5 mg/kg, ip measured for 4 days; format: functional; conditions: 96 h, route intraperitoneal
Candida albicans [12] = test: Antifungal activity against Candida albicans C697 infected in normal mouse assessed as reduction of fungal burden in kidney at 5 mg/kg, ip; format: functional, organism-based; design: dose 5 mg/kg
Candida albicans [13] = test: Antifungal activity against Candida albicans C697 infected in normal mouse assessed as increase of host survival at 5 mg/kg, ip measured for 4 days; format: functional; conditions: 96 h, route intraperitoneal

MIC (Candida albicans [1]) [mg/L] | IC50 (Beta-1,3-glucan synthase) [µM] | MIC (Nakaseomyces glabratus) [mg/L] | AUC(0-t) at 6 h [7] [µg·h/mL] | Cmax [9] [µg/mL] | SMILES | minimal effective concentration (Aspergillus fumigatus [8]) [µg/mL] | further results
0.13 (≈ 0.224 µM) | 0.069 | < 0.02 | 1.1 | 0.33 | CC1(COc2c(N3CCN(S(=O)(=O)Cc4ccc(N)c(Cl)c4)CC3)cnn(-c3cc(F)cc(F)c3)c2=O)CC1 | 0.52 | 
> 33 | 0.637 | 0.52 (≈ 0.85 µM) | 0.64 | 0.44 | CC1(COc2c(N3CCN(S(=O)(=O)Cc4ccc(N)c(C(F)(F)F)c4)CC3)cnn(-c3cccc(Cl)c3)c2=O)CC1 | > 33 | 

The next lines start with the compound.

SMILES | MIC (Candida albicans [1]) [mg/L] | IC50 (Beta-1,3-glucan synthase) [µM] | MIC (Nakaseomyces glabratus) [mg/L] | AUC(0-t) at 6 h [7] [µg·h/mL] | Cmax [9] [µg/mL] | minimal effective concentration (Aspergillus fumigatus [8]) [µg/mL] | further results
O=c1c(OC2CCCC2)c(N2CCN(S(=O)(=O)Cc3cccc(O)c3)CC2)cnn1-c1cc(F)cc(F)c1 | 2.1 (≈ 3.84 µM) | 0.0915 | 0.26 (≈ 0.476 µM) |  |  |  | AUC (Rattus norvegicus): BLD
Cc1cc(CS(=O)(=O)N2CCN(c3cnn(-c4cccc(Cl)c4)c(=O)c3OCC3(C)CC3)CC2)ccc1N [listing 1 of 2 here] |  |  |  |  |  |  | survival at 100 mg/kg (Candida albicans [2]): 100%; survival at 100 mg/kg (Candida albicans [3]): 100%
Cc1cc(CS(=O)(=O)N2CCN(c3cnn(-c4cccc(Cl)c4)c(=O)c3OCC3(C)CC3)CC2)ccc1N [listing 2 of 2 here] |  |  |  |  |  |  | Activity (Candida albicans [4]): Active; Activity (Candida albicans [5]): Active; Activity (Aspergillus fumigatus [6]): Active
CC[C@H](C)C[C@H](C)CCCCCCCCC(=O)N[C@H]1C[C@@H](O)[C@@H](NCCN)NC(=O)[C@@H]2[C@@H](O)CCN2C(=O)[C@H]([C@H](O)CCN)NC(=O)[C@H]([C@H](O)[C@@H](O)c2ccc(O)cc2)NC(=O)[C@@H]2C[C@@H](O)CN2C(=O)[C@H]([C@@H](C)O)NC1=O [CASPOFUNGIN] |  |  |  |  |  |  | Activity (Candida albicans [10]): Active; survival at 5 mg/kg (Candida albicans [11]): 100%; Activity (Candida albicans [12]): Active; survival at 5 mg/kg (Candida albicans [13]): 100%
Cc1cc(CS(=O)(=O)N2CCN(c3cnn(-c4cc(F)cc(F)c4)c(=O)c3OCC3(C)CC3)CC2)ccc1N | 1.04 (≈ 1.86 µM) | 0.125 | 0.13 (≈ 0.232 µM) | 14.5 | 3.5 | 4.2 | 
